Test results: ChEMBL document CHEMBL6153041, “Discovery of High-Affinity SMARCA2/4 Bromodomain Ligands and Development of Potent and Exceptionally Selective SMARCA2 PROTAC Degraders” (J Med Chem, 2025)

Key:
[1] = target: SWI/SNF-related matrix-associated actin-dependent regulator of chromatin subfamily A member 2 (Homo sapiens, UniProt P51531); assay: Inhibition of recombinant human GST-tagged SMARCA2 bromodomain measured after 120 mins incubation by TR-FRET assay
[2] = target: SWI/SNF-related matrix-associated actin-dependent regulator of chromatin subfamily A member 4 (Homo sapiens, UniProt P51532); assay: Inhibition of recombinant human GST-tagged SMARCA4 bromodomain measured after 120 mins incubation by TR-FRET assay
HeLa = assay: Selectivity ratio, ratio of DC50 for VHL1/SMARCA4 in human genetically modified Hela cells to VHL1/SMARCA2 in human genetically modified Hela cells; format: cell-based
[3] = target: T1, von Hippel-Lindau disease tumor suppressor/SWI/SNF-related matrix-associated actin-dependent regulator of chromatin subfamily A member 2 (Homo sapiens, UniProt P51531+P40337); assay: PROTAC activity at VHL1/SMARCA2 in human genetically modified Hela cells assessed as degradation measured after 24 hrs incubation by Nano-Glo HiBiT Lytic Detection Assay; format: cell-based
Target sequence in this assay (P51531 whole entry): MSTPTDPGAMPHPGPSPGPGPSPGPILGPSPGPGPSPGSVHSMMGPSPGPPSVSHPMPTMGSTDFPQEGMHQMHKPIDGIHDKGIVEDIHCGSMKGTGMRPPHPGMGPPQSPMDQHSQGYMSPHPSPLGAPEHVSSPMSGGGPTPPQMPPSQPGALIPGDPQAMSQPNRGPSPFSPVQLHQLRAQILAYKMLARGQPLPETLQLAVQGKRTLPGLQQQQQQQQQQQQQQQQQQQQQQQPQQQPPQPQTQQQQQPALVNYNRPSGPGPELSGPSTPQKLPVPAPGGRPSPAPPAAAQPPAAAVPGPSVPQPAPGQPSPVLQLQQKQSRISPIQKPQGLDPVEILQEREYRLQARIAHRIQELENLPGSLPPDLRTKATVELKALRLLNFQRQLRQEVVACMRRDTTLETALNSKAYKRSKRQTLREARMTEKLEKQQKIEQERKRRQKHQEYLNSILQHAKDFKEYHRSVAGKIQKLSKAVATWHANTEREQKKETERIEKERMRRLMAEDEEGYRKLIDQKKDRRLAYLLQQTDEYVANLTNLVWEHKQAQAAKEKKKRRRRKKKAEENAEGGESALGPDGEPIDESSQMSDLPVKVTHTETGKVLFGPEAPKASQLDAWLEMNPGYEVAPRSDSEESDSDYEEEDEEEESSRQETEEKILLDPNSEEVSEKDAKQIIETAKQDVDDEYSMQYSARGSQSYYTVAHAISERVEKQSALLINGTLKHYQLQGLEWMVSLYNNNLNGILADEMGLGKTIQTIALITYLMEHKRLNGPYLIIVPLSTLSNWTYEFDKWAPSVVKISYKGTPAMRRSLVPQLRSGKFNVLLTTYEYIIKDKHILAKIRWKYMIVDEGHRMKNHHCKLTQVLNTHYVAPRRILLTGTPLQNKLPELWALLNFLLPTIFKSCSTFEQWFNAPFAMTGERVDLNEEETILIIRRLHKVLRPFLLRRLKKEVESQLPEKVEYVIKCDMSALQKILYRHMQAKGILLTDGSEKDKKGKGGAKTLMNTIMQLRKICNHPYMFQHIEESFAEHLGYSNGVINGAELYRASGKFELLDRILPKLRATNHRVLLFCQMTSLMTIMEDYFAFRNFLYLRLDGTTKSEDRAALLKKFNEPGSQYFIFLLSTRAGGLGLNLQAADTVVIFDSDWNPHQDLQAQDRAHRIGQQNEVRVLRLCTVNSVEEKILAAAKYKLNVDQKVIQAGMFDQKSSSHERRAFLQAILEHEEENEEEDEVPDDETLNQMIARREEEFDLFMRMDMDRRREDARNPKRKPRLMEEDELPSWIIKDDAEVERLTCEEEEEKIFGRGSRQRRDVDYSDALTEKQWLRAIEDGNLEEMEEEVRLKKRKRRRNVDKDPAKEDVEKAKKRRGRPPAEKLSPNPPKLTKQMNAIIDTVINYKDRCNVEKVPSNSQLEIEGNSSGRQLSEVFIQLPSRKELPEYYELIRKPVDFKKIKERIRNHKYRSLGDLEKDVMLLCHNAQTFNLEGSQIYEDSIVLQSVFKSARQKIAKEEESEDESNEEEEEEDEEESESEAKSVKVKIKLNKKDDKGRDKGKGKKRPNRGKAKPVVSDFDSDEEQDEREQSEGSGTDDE
Target sequence in this assay (P40337 whole entry): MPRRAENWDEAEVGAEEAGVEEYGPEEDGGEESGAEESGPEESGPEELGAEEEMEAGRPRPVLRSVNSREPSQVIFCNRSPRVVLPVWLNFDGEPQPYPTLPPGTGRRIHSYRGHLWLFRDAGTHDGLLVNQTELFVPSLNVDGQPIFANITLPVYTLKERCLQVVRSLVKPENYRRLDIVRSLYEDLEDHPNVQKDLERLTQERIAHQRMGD

[4] = target: T2, von Hippel-Lindau disease tumor suppressor/SWI/SNF-related matrix-associated actin-dependent regulator of chromatin subfamily A member 4 (Homo sapiens, UniProt P51532+P40337); assay: PROTAC activity at VHL1/SMARCA4 in human genetically modified Hela cells assessed as maximal degradation measured after 24 hrs incubation by Nano-Glo HiBiT Lytic Detection Assay relative to control; format: cell-based
Target sequence in this assay (P40337 whole entry, looked up): as the sequence (P40337 whole entry) above
Target sequence in this assay (P51532 whole entry, looked up): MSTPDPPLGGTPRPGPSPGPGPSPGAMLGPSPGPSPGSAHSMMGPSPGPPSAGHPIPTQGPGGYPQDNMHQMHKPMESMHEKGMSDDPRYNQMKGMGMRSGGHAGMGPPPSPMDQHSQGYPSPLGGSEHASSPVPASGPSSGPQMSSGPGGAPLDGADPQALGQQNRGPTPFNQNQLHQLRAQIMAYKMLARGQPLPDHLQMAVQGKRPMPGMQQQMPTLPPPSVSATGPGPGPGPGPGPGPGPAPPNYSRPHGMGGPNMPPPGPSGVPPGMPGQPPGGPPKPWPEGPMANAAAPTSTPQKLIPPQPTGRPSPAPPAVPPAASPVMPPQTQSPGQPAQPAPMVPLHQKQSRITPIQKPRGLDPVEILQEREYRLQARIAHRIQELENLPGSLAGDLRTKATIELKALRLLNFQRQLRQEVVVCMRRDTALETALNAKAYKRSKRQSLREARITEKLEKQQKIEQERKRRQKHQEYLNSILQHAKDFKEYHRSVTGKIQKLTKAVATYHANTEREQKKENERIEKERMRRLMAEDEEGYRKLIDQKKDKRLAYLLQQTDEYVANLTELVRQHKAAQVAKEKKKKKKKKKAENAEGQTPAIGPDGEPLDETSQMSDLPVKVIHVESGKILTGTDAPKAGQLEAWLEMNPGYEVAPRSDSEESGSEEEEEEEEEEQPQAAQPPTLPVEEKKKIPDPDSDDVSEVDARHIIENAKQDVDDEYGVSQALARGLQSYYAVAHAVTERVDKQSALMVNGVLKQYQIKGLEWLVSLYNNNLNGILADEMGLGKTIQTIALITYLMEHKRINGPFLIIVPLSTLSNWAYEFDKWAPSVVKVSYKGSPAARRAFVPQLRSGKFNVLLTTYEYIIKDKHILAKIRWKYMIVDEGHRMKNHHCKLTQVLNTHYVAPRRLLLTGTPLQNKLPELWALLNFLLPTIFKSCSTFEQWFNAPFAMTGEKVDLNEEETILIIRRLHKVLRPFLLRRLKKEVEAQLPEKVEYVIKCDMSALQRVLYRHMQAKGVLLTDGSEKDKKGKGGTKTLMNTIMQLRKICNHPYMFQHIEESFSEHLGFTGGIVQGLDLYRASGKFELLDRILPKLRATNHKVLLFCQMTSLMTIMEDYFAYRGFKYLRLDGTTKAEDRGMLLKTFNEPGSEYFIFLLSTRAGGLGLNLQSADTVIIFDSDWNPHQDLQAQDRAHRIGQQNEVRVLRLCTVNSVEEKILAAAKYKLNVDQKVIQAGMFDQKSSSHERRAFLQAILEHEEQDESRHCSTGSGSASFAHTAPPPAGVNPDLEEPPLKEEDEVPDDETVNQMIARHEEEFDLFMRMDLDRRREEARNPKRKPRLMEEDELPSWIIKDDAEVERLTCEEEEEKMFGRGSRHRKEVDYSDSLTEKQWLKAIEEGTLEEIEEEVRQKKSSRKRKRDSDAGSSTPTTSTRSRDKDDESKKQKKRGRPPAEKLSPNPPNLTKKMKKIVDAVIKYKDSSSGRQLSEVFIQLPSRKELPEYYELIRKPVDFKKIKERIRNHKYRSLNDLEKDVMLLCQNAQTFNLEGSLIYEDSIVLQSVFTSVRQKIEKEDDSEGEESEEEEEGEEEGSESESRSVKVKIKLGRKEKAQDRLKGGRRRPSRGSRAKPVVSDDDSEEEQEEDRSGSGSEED

[5] = target: T2, von Hippel-Lindau disease tumor suppressor/SWI/SNF-related matrix-associated actin-dependent regulator of chromatin subfamily A member 4; assay: PROTAC activity at VHL1/SMARCA4 in human genetically modified Hela cells assessed as degradation measured after 24 hrs incubation by Nano-Glo HiBiT Lytic Detection Assay; format: cell-based
Target sequence in this assay (P51532 whole entry): as the sequence (P51532 whole entry, looked up) above
Target sequence in this assay (P40337 whole entry): as the sequence (P40337 whole entry) above

[6] = target: T1, von Hippel-Lindau disease tumor suppressor/SWI/SNF-related matrix-associated actin-dependent regulator of chromatin subfamily A member 2; assay: PROTAC activity at VHL1/SMARCA2 in human genetically modified Hela cells assessed as maximal degradation measured after 24 hrs incubation by Nano-Glo HiBiT Lytic Detection Assay relative to control; format: cell-based
Target sequence in this assay (P40337 whole entry, looked up): as the sequence (P40337 whole entry) above
Target sequence in this assay (P51531 whole entry, looked up): as the sequence (P51531 whole entry) above

SWI/SNF-related matrix-associated actin-dependent regulator of chromatin subfamily A member 2, sequence (P51531 whole entry): as above
SWI/SNF-related matrix-associated actin-dependent regulator of chromatin subfamily A member 4, sequence (P51532 whole entry): as the sequence (P51532 whole entry, looked up) above

| IC50 [1] | IC50 [2] | SMILES | Ratio (HeLa) | DC50 [3] | Emax [4] | DC50 [5] | Emax [6] |
| --- | --- | --- | --- | --- | --- | --- | --- |
| 630 nM | 1150 nM | O=c1nc2n(c3cccc(Cl)c13)-c1cc(C3CCNCC3)ccc1C21CCOCC1 | – | – | – | – | – |
| – | – | Cc1ncsc1-c1ccc([C@H](C)NC(=O)[C@@H]2C[C@@H](O)CN2C(=O)[C@@H](NC(=O)CCN2CCC(c3ccc4c(c3)C3(CCCCC3)c3nc(=O)c5c(Cl)cccc5n3-4)CC2)C(C)(C)C)cc1 | 6 | 99 nM | 77% | 543 nM | 93% |
| > 10000 nM | > 10000 nM | O=c1nc2n(c3nccc(O)c13)-c1cc(C3CCNCC3)ccc1C21CCCCC1 | – | – | – | – | – |
| 3070 nM | 1440 nM | O=c1nc2n(c3ccccc13)-c1cc(C3CCNCC3)ccc1C21CCCCC1 | – | – | – | – | – |
| – | – | Cc1ncsc1-c1ccc([C@H](CCCCCN2CCC(c3ccc4c(c3)-n3c(nc(=O)c5c(Cl)cccc53)C43CCCCC3)CC2)NC(=O)[C@@H]2C[C@@H](O)CN2C(=O)[C@@H](NC(=O)C2(F)CC2)C(C)(C)C)cc1 | 3 | 7.5 nM | 87% | 22 nM | 92% |
| – | – | Cc1ncsc1-c1ccc([C@H](C)NC(=O)[C@@H]2C[C@@H](O)CN2C(=O)[C@@H](NC(=O)[C@H]2CC[C@H](CN3CC4(CCC(n5cc(-c6cc(-c7ccccc7O)nnc6N)cn5)CC4)C3)CC2)C(C)(C)C)cc1 | 39 | 23 nM | 52% | 895 nM | 93% |
| 3400 nM | 2840 nM | CCc1cccc2c1c(=O)nc1n2-c2cc(C3CCNCC3)ccc2C12CCCCC2 | – | – | – | – | – |
| 53 nM | – | O=c1nc2n(c3cccc(Cl)c13)-c1ccc(C3CCNCC3)cc1C21CCCCC1 | – | – | – | – | – |
| – | – | Cc1ncsc1-c1ccc([C@H](C)NC(=O)[C@@H]2C[C@@H](O)CN2C(=O)[C@@H](NC(=O)[C@H]2CC[C@H](CN3CCC(c4ccc5c(c4)-n4c(nc(=O)c6c(Br)cccc64)C54CCCCC4)CC3)CC2)C(C)(C)C)cc1 | > 700 | 14 nM | 37% | > 10000 nM | 88% |
| – | – | Cc1ncsc1-c1ccc([C@H](CCCCCN2CCC(c3ccc4c(c3)C3(CCCCC3)c3nc(=O)c5c(Br)cccc5n3-4)CC2)NC(=O)[C@@H]2C[C@@H](O)CN2C(=O)[C@@H](NC(=O)C2(F)CC2)C(C)(C)C)cc1 | 7 | 0.24 nM | 97% | 1.7 nM | 97% |
| 30 nM | 38 nM | O=c1nc2n(c3cccc(Br)c13)-c1ccc(C3CCNCC3)cc1C21CCCCC1 | – | – | – | – | – |
| – | – | Cc1ncsc1-c1ccc([C@H](C)NC(=O)[C@@H]2C[C@@H](O)CN2C(=O)[C@@H](NC(=O)CCCCCN2CCC(c3ccc4c(c3)C3(CCCCC3)c3nc(=O)c5c(Cl)cccc5n3-4)CC2)C(C)(C)C)cc1 | 24 | 29 nM | 55% | 697 nM | 94% |
| – | – | Cc1ncsc1-c1ccc([C@H](CCCCCN2CCC(c3ccc4c(c3)-n3c(nc(=O)c5c(Br)cccc53)C43CCCCC3)CC2)NC(=O)[C@@H]2C[C@@H](O)CN2C(=O)[C@@H](NC(=O)C2(F)CC2)C(C)(C)C)cc1 | 28 | 3 nM | 93% | 84 nM | 95% |
| 3450 nM | 3340 nM | O=c1nc2n(c3cccc(Cl)c13)-c1ccc(C3CCNCC3)cc1C21CCNCC1 | – | – | – | – | – |
| 64 nM | 90 nM | O=c1nc2n(c3cccc(Br)c13)-c1cc(C3CCNCC3)ccc1C21CCCCC1 | – | – | – | – | – |
| – | – | Cc1ncsc1-c1ccc([C@H](C)NC(=O)[C@@H]2C[C@@H](O)CN2C(=O)[C@@H](NC(=O)[C@H]2CC[C@H](CN3CCC(c4ccc5c(c4)C4(CCCCC4)c4nc(=O)c6c(Cl)cccc6n4-5)CC3)CC2)C(C)(C)C)cc1 | > 1500 | – | 48% | > 10000 nM | 92% |
| 4520 nM | 3210 nM | O=c1nc2n(c3cccc(O)c13)-c1cc(C3CCNCC3)ccc1C21CCCCC1 | – | – | – | – | – |
| 106 nM | 133 nM | O=c1nc2n(c3cccc(Cl)c13)-c1cc(C3CCNCC3)ccc1C21CCCC1 | – | – | – | – | – |
| – | – | Cc1ncsc1-c1ccc([C@H](C)NC(=O)[C@@H]2C[C@@H](O)CN2C(=O)[C@@H](NC(=O)CCCCN2CCC(c3ccc4c(c3)C3(CCCCC3)c3nc(=O)c5c(Cl)cccc5n3-4)CC2)C(C)(C)C)cc1 | > 950 | 105 nM | > 39% | > 10000 nM | 88% |
| > 10000 nM | > 10000 nM | O=c1nc2n(c3ccnc(O)c13)-c1cc(C3CCNCC3)ccc1C21CCCCC1 | – | – | – | – | – |
| 56 nM | 55 nM | O=c1nc2n(c3cccc(Cl)c13)-c1ccc(C3CCNCC3)cc1C21CCCC1 | – | – | – | – | – |
| – | – | Cc1ncsc1-c1ccc([C@H](C)NC(=O)[C@@H]2C[C@@H](O)CN2C(=O)[C@@H](NC(=O)CCCN2CCC(c3ccc4c(c3)C3(CCCCC3)c3nc(=O)c5c(Cl)cccc5n3-4)CC2)C(C)(C)C)cc1 | 115 | 61 nM | 70% | 7000 nM | 87% |
| 153 nM | 129 nM | O=c1nc2n(c3cccc(Cl)c13)-c1ccc(C3CCNCC3)cc1C21CCCCCC1 | – | – | – | – | – |
| – | – | Cc1ncsc1-c1ccc([C@H](C)NC(=O)[C@@H]2C[C@@H](O)CN2C(=O)[C@@H](c2cc(N3CCC(CN4CCC(O[C@H]5C[C@H](Oc6cc(CN7C8CCC7CN(c7cc(-c9ccccc9O)nnc7N)C8)ccn6)C5)CC4)CC3)no2)C(C)C)cc1 | 13 | 0.1 nM | 96% | 1.3 nM | 97% |
| 538 nM | 612 nM | O=c1nc2n(c3cccc(Cl)c13)-c1ccc(C3CCNCC3)cc1C21CCOCC1 | – | – | – | – | – |
| – | – | Cc1ncsc1-c1ccc([C@H](C)NC(=O)[C@@H]2C[C@@H](O)CN2C(=O)[C@@H](NC(=O)CN2CCC(c3ccc4c(c3)C3(CCCCC3)c3nc(=O)c5c(Cl)cccc5n3-4)CC2)C(C)(C)C)cc1 | 2 | 5.3 nM | 97% | 8.7 nM | 97% |
| – | – | Cc1ncsc1-c1ccc([C@H](C)NC(=O)[C@@H]2C[C@@H](O)CN2C(=O)[C@@H](NC(=O)[C@H]2CC[C@H](CN3CCC(c4ccc5c(c4)C4(CCCCC4)c4nc(=O)c6c(Br)cccc6n4-5)CC3)CC2)C(C)(C)C)cc1 | 54 | 3 nM | 58% | 162 nM | 93% |
| 45 nM | 83 nM | O=c1nc2n(C3CCCC3)c3cc(C4CCNCC4)ccc3n2c2cccc(Br)c12 | – | – | – | – | – |
| 62 nM | 51 nM | O=c1nc2n(c3cccc(Br)c13)-c1ccc(C3CCNCC3)cc1C21CCCC1 | – | – | – | – | – |
